Measured values reported in PubChem BioAssay (NCI).
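GI50 marks 50% less growth. TGI: total growth inhibition.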

Assays:
Assay in all cases: growth of human tumour cells (NCI), 384-well format
SF-539 CNS = system: SF-539 CNS
SF-295 CNS = system: SF-295 CNS
HOP-92 NSCLC = system: HOP-92 NSCLC
OVCAR-3 ovarian = system: OVCAR-3 ovarian
UACC-257 melanoma = system: UACC-257 melanoma
MDA-MB-435 melanoma = system: MDA-MB-435 melanoma
SK-MEL-5 melanoma = system: SK-MEL-5 melanoma
KM12 colon = system: KM12 colon
SW-620 colon = system: SW-620 colon
K-562 leukemia = system: K-562 leukemia
MOLT-4 leukemia = system: MOLT-4 leukemia
NCI-H23 lung = system: NCI-H23 lung
SN12C renal = system: SN12C renal
HCT-15 colon = system: HCT-15 colon
RXF 393 renal = system: RXF 393 renal
SK-MEL-28 melanoma = system: SK-MEL-28 melanoma
COLO 205 colon = system: COLO 205 colon
T-47D breast = system: T-47D breast
CCRF-CEM leukemia = system: CCRF-CEM leukemia
MDA-MB-468 breast = system: MDA-MB-468 breast
UACC-62 melanoma = system: UACC-62 melanoma
786-0 renal = system: 786-0 renal
UO-31 renal = system: UO-31 renal
IGROV1 ovarian = system: IGROV1 ovarian
M14 melanoma = system: M14 melanoma
CAKI-1 renal = system: CAKI-1 renal
SK-OV-3 ovarian = system: SK-OV-3 ovarian
TK-10 renal = system: TK-10 renal
NCI-H460 NSCLC = system: NCI-H460 NSCLC
A549 NSCLC = system: A549 NSCLC
RPMI-8226 leukemia = system: RPMI-8226 leukemia
PC-3 prostate = system: PC-3 prostate
MCF7 breast = system: MCF7 breast
MALME-3M melanoma = system: MALME-3M melanoma
NCI-H226 lung = system: NCI-H226 lung
NCI-H522 lung = system: NCI-H522 lung
SF-268 CNS = system: SF-268 CNS
NCI-H322M lung = system: NCI-H322M lung
HCC-2998 colon = system: HCC-2998 colon
SNB-75 CNS = system: SNB-75 CNS
HS 578T breast = system: HS 578T breast
HCT-116 colon = system: HCT-116 colon
MDA-MB-231 breast = system: MDA-MB-231 breast
SNB-19 CNS = system: SNB-19 CNS
SK-MEL-2 melanoma = system: SK-MEL-2 melanoma
LOX IMVI melanoma = system: LOX IMVI melanoma
U251 glioblastoma = system: U251 glioblastoma
DU-145 prostate = system: DU-145 prostate
HL-60(TB) leukemia = system: HL-60(TB) leukemia
HT29 colon = system: HT29 colon
A498 renal = system: A498 renal
OVCAR-4 ovarian = system: OVCAR-4 ovarian
ACHN renal = system: ACHN renal
BT-549 breast = system: BT-549 breast
HOP-62 NSCLC = system: HOP-62 NSCLC
OVCAR-8 ovarian = system: OVCAR-8 ovarian
NCI/ADR-RES ovarian = system: NCI/ADR-RES ovarian
OVCAR-5 ovarian = system: OVCAR-5 ovarian
EKVX NSCLC = system: EKVX NSCLC

For `CNC(=O)c1cccc2cc(Oc3ccnc4cc(OCC5(N)CC5)c(OC)cc34)ccc12`, the GI50 (SF-539 CNS) was 0.621 µM, the TGI (SF-539 CNS) was 4.94 µM and the GI50 (SF-295 CNS) was 6.14 µM. The TGI (SF-295 CNS) was 18.7 µM, the GI50 (HOP-92 NSCLC) was 4.13 µM and the TGI (HOP-92 NSCLC) was 15.2 µM. For the same compound, the GI50 (OVCAR-3 ovarian) was 2.23 µM, the TGI (OVCAR-3 ovarian) was 5.94 µM and the GI50 (UACC-257 melanoma) was 4.04 µM. It also gave a TGI (UACC-257 melanoma) of 14.2 µM, a GI50 (MDA-MB-435 melanoma) of 2.63 µM and a TGI (MDA-MB-435 melanoma) of 7.43 µM. The GI50 (SK-MEL-5 melanoma) was 2.3 µM, the TGI (SK-MEL-5 melanoma) was 8.66 µM and the GI50 (KM12 colon) was 3.83 µM. For the same compound, the TGI (KM12 colon) was 15.1 µM, the GI50 (SW-620 colon) was 4.12 µM and the TGI (SW-620 colon) was 15 µM. The GI50 (K-562 leukemia) was 1.7 µM, the TGI (K-562 leukemia) was 3.59 µM and the GI50 (MOLT-4 leukemia) was 1.2 µM. The TGI (MOLT-4 leukemia) was 2.45 µM, the GI50 (NCI-H23 lung) was 4.73 µM and the TGI (NCI-H23 lung) was 16.4 µM. The GI50 (SN12C renal) was 2.55 µM, the TGI (SN12C renal) was 8.63 µM and the GI50 (HCT-15 colon) was 3.87 µM. For the same compound, the TGI (HCT-15 colon) was 13.1 µM, the GI50 (RXF 393 renal) was 1.64 µM and the TGI (RXF 393 renal) was 4.39 µM. It also gave a GI50 (SK-MEL-28 melanoma) of 12.1 µM, a TGI (SK-MEL-28 melanoma) of 24.6 µM and a GI50 (COLO 205 colon) of 3.22 µM. It also gave a TGI (COLO 205 colon) of 10.2 µM, a GI50 (T-47D breast) of 2.14 µM and a TGI (T-47D breast) of 7.39 µM. The GI50 (CCRF-CEM leukemia) was 1.67 µM, the TGI (CCRF-CEM leukemia) was 3.23 µM and the GI50 (MDA-MB-468 breast) was 2.38 µM. The TGI (MDA-MB-468 breast) was 5.54 µM, the GI50 (UACC-62 melanoma) was 2.37 µM and the TGI (UACC-62 melanoma) was 6.72 µM. It also gave a GI50 ([…]-0 renal) of 1.77 µM, a TGI (786-0 renal) of 3.49 µM and a GI50 (UO-31 renal) of 3.17 µM. The TGI (UO-31 renal) was 10.9 µM, the GI50 (IGROV1 ovarian) was 5.36 µM and the TGI (IGROV1 ovarian) was 17.5 µM. For the same compound, the GI50 (M14 melanoma) was 3.97 µM, the TGI (M14 melanoma) was 14.3 µM and the GI50 (CAKI-1 renal) was 2.02 µM. The TGI (CAKI-1 renal) was 5.35 µM, the GI50 (SK-OV-3 ovarian) was 3.01 µM and the TGI (SK-OV-3 ovarian) was 11.6 µM. For the same compound, the GI50 (TK-10 renal) was 2.55 µM, the TGI (TK-10 renal) was 6.52 µM and the GI50 (NCI-H460 NSCLC) was 2.74 µM. It also gave a TGI (NCI-H460 NSCLC) of 7.12 µM, a GI50 (A549 NSCLC) of 4.22 µM and a TGI (A549 NSCLC) of 14.6 µM. It also gave a GI50 (RPMI-8226 leukemia) of 1.98 µM, a TGI (RPMI-8226 leukemia) of 5.13 µM and a GI50 (PC-3 prostate) of 4.42 µM. The TGI (PC-3 prostate) was 16.2 µM, the GI50 (MCF7 breast) was 2.37 µM and the TGI (MCF7 breast) was 10.8 µM. It also gave a GI50 (MALME-3M melanoma) of 4.05 µM, a TGI (MALME-3M melanoma) of 15.7 µM and a GI50 (NCI-H226 lung) of 1.03 µM. For the same compound, the TGI (NCI-H226 lung) was 4.73 µM, the GI50 (NCI-H522 lung) was 2.75 µM and the TGI (NCI-H522 lung) was 9.57 µM. The GI50 (SF-268 CNS) was 4.31 µM, the TGI (SF-268 CNS) was 17.9 µM and the GI50 (NCI-H322M lung) was 6.8 µM. The TGI (NCI-H322M lung) was 19.4 µM, the GI50 (HCC-2998 colon) was 5.53 µM and the TGI (HCC-2998 colon) was 16 µM. It also gave a GI50 (SNB-75 CNS) of 1.02 µM, a TGI (SNB-75 CNS) of 9.33 µM and a GI50 (HS 578T breast) of 1.23 µM. The TGI (HS 578T breast) was 4.08 µM, the GI50 (HCT-116 colon) was 1.98 µM and the TGI (HCT-116 colon) was 3.84 µM. It also gave a GI50 (MDA-MB-231 breast) of 3.64 µM, a TGI (MDA-MB-231 breast) of 14.4 µM and a GI50 (SNB-19 CNS) of 3.89 µM. For the same compound, the TGI (SNB-19 CNS) was 15.7 µM, the GI50 (SK-MEL-2 melanoma) was 1.89 µM and the TGI (SK-MEL-2 melanoma) was 4.35 µM. The GI50 (LOX IMVI melanoma) was 2.41 µM, the TGI (LOX IMVI melanoma) was 5.84 µM and the GI50 (U251 glioblastoma) was 3.73 µM. The TGI (U251 glioblastoma) was 14.9 µM, the GI50 (DU-145 prostate) was 5.43 µM and the TGI (DU-145 prostate) was 17.6 µM. For the same compound, the GI50 (HL-60(TB) leukemia) was 2.28 µM, the TGI (HL-60(TB) leukemia) was 3.75 µM and the GI50 (HT29 colon) was 5.88 µM. It also gave a TGI (HT29 colon) of 17.9 µM, a GI50 (A498 renal) of 2.5 µM and a TGI (A498 renal) of 6.93 µM. For the same compound, the GI50 (OVCAR-4 ovarian) was 1.48 µM, the TGI (OVCAR-4 ovarian) was 4.04 µM and the GI50 (ACHN renal) was 1.67 µM. It also gave a TGI (ACHN renal) of 3.37 µM, a GI50 (BT-549 breast) of 1.78 µM and a TGI (BT-549 breast) of 8.85 µM. It also gave a GI50 (HOP-62 NSCLC) of 2.91 µM, a TGI (HOP-62 NSCLC) of 15.5 µM and a GI50 (OVCAR-8 ovarian) of 4.05 µM. The TGI (OVCAR-8 ovarian) was 16.1 µM, the GI50 (NCI/ADR-RES ovarian) was 13.3 µM and the TGI (NCI/ADR-RES ovarian) was 27 µM. For the same compound, the GI50 (OVCAR-5 ovarian) was 5.37 µM, the TGI (OVCAR-5 ovarian) was 16.8 µM and the GI50 (EKVX NSCLC) was 3.66 µM. It also gave a TGI (EKVX NSCLC) of 14.8 µM.
